The source of these data is PMC5890513 (Antiviral Chemistry & Chemotherapy, 2017).

One data set relates to SFTSV. Description: microbe, parasite or virus in culture. It counts as cell-based, severe fever with thrombocytopenia syndrome virus. As to conditions: for EC50: Severe fever with thrombocytopenia syndrome virus, Vero, 72 h, read-out: EC50 (50% effective concentration), anti-SFTSV activity.
The nature of the next data set: in vitro. As to conditions: monkey.

Bounds are passed on as bounds.

Take `CCN(CC)Cc1cc(Nc2ccnc3cc(Br)ccc23)ccc1O` [Compound 3, 4-(7-Bromoquinolin-4-ylamino)-2-diethylaminomethylphenol]: the EC50 with SFTSV is 31.1 ± 16.8 µM. Further, the CC50 in the data set “in vitro” is above 100 µM.
Turning to `NC(=O)c1ncn([C@@H]2O[C@H](CO)[C@@H](O)[C@H]2O)n1` [Ribavirin], in the data set with SFTSV, the “anti-SFTSV activity (intracellular SFTSV RNA level), in words” value is on record as “reduced the intracellular SFTSV RNA level in a dose-dependent manner” and the EC50 was 40.1 ± 16.3 µM. Also, the CC50 in the data set “in vitro” is above 100 µM. For the same compound, the “viability of mock-infected Vero cells” value with Vero cells is listed as “did not reduce the viability”.
Taken in the same sequence, the figures for `NC(=O)c1nc(F)c[nH]c1=O` [Favipiravir] were “reduced the intracellular SFTSV RNA level in a dose-dependent manner”, 25 ± 9.3 µM, above 100 µM and “did not reduce the viability”.
Turning to `CCN(CC)Cc1cc(Nc2ccnc3cc(Cl)ccc23)ccc1O` [Compound 1, 4-(7-Chloroquinolin-4-ylamino)-2-diethylaminomethylphenol], in the data set on SFTSV, the “anti-SFTSV activity (intracellular SFTSV RNA level), in words” value is “selective inhibitor of SFTSV replication” and the EC50 was 19.1 ± 5.1 µM. Further, in “in vitro”, the CC50 is above 100 µM.
In the case of `CCN(CC)Cc1cc(Nc2ccnc3cc(I)ccc23)ccc1O` [Compound 4, 4-(7-Iodoquinolin-4-ylamino)-2-diethylaminomethylphenol], in the data set on SFTSV, the EC50 amounted to 15.6 ± 4.9 µM. In addition, the CC50 in the data set “in vitro” is above 100 µM.
On to `CCN(CC)Cc1cc(Nc2ccnc3cc(F)ccc23)ccc1O` [Compound 2, 4-(7-Fluoroquinolin-4-ylamino)-2-diethylaminomethylphenol], for which the EC50 with SFTSV came out at 36.6 ± 9.3 µM. In addition, the CC50 in the data set “in vitro” was above 100 µM.
